# Source: patent US20240216288A1, “LIPID NANOPARTICLES CONTAINING POLYNUCLEOTIDES ENCODING PROPIONYL-COA CARBOXYLASE ALPHA AND BETA SUBUNITS AND USES THEREOF” (ModernaTX, Inc., priority 2021, published 2024)
# Assay: Residual parent lipid in mouse liver at 24 h (hEPO study)
# Format: in vivo
# Conditions: CD-1 mice
compound,measurement,value
CCCCCC(CCCCC)CCOC(=O)CCCCCCCN(CCO)CCCCCCCC(=O)OCCC(CCCCC)CCCCC [compound 25],Parent Lipid Remaining (nmol/g liver tissue) at 24 h,0.1 0.04 nmol/g liver tissue
